Biological target: T1, Intestinal Alpha-glucosidase type I (α-glucosidase)
T1 construct: gene MAL12; commercial enzyme (Sigma-Aldrich), no catalogue number
Assay: alpha-glucosidase inhibition assay
Assay type: biochemical
Conditions: positive control; 4-nitrophenyl β-d-glucopyranoside listed among reagents (beta anomer as printed); pH, temperature not given
Source text: alpha-glucosidase inhibition assay on Intestinal Alpha-glucosidase type I (α-glucosidase)

- α-Glucosidase (IC50 mg/mL): 1.12 ± 0.08 mg/mL
Compound: C[C@H]1O[C@H](O[C@H]2[C@H](O)[C@@H](O)[C@@H](O[C@H]3[C@H](O)[C@@H](O)C(O)O[C@@H]3CO)O[C@@H]2CO)[C@H](O)[C@@H](O)[C@@H]1N[C@H]1C=C(CO)[C@@H](O)[C@H](O)[C@H]1O (stereo partly shown) [acarbose]

— paper PMC8778445, “HPLC-MS Profiling, Antioxidant, Antimicrobial, Antidiabetic, and Cytotoxicity Activities of Arthrocnemum indicum (Willd.) Moq. Extracts” (Plants, 2022)
